According to patent US20150025077A1 (COYOTE PHARMACEUTICALS, INC., priority 2012, published 2015):

What was measured:
Rap1 = assay: Prenylation of Rap1 in Neuro2A cells, western blotting; type: cell-based, mouse; details: 100 nM; with GGTI-298; percentage of control (GGTI only)
Method: Mouse neuroblastoma Neuro2A cells were cultured in DMEM supplemented with 10% FBS for 24 hrs. The cells were treated with 102GGA derivative compounds for 24 hrs first before GGTase inhibitor GGTI-298 was added to the culture medium for additional 24 hr incubation. […] Both un-prenylated and total Rap1 protein bands were quantified using Image J and normalized to their respective loading control GAPDH. The results for control and each compound treatment were calculated as the ratio of normalized un-prenylated Rap1 to total Rap1, and averaged from two biological repeats of one experiment. The final results were presented as a percentage of the control treatments (GGTI only) from the same batch experiment. The data shown in the chart were averaged from two repeats of one experiment and presented as the ratio of normalized un-prenylated Rap1 to total Rapt Compound ID numbers in table refer to structures in Table 1 and Table 2.

Sprague Dawley rats = assay: Kainic acid stereotactic hippocampus injection model, fraction of cells damaged; type: in vivo, rat; details: KA at 72 hours
Method: CNS-102 was administered orally to Sprague Dawley rats at 12 mg/kg. After dosing, KA was stereotactically injected into the hippocampus at 24, 48, 72, 96 and 168 hours to induce neuron damage. After 24 h, hippocampus tissue was collected, stained, and imaged. The scans were analyzed by Image J to calculate the fraction of cells having KA-induced damage. Average fraction damaged in the hippocampus from ten animals for each treatment (PBS vs. 12 mg/kg CNS-102) by time (24, 48, 72, 96 and 168 hours) combination was estimated with PROC MIXED in SAS. Comparisons of the CNS-102 treatment groups to the pooled PBS treatment at the different times can be made, giving the results tabulated below.
The fraction of cells damaged in the kainic acid model was determined on 130 rats, each receiving one dose of CNS-102 at either 0, 1, 3, 6, 12 or 24 mg/kg. PBS was used for dosing at 0 mg/kg. The linear model of the log10 percent damage versus concentration is graphically shown FIG. 5.
After dosing, KA was stereotactically injected into the hippocampus at 72 hours to induce neuron damage. After 24 h, hippocampus tissue was collected, stained, and imaged. The scans were analyzed by Image J to calculate the fraction of cells having KA-induced damage.
The indicated compounds or vehicle control were orally dosed to Sprague-Dawley rats, and Kainic acid was injected. After dosing, KA was stereotactically injected into the hippocampus at 72 hours to induce neuron damage. After 24 h, hippocampus tissue was collected, stained, and imaged. The scans were analyzed by Image J to calculate the fraction of cells having KA-induced damage. Neurons damaged by Kainic acid (mean of hippocampus CA3 neurons damaged) were quantified.

HSP70 = HSP70 levels in Neuro 2a cells, ELISA; type: cell-based, mouse; details: 48 hrs compound then 24 hrs GGTI-298
Method: Mouse neuroblastoma 2a cells were cultured in DMEM with 10% FBS for 24 hrs. […] After 24 hrs cells were harvested and lysates were prepared and analyzed by ELISA for HSP70. Compound ID numbers in table refer to structures in Table 1 and Table 2.

Compound	unprenylated/total RAP1 (%) (Rap1)	HSP70 level, ELISA signal (absence of compounds normalized as 1.00) (HSP70; 100 nM)	HSP70 level, ELISA signal (absence of compounds normalized as 1.00) (HSP70; 10uM)	also measured
CC(C)=CCC/C(C)=C/CC/C(C)=C/CC/C(C)=C/COC(=O)C1CCCCC1 [Compound 2f, 2E, 6E, 10E-Geranylgeranyl cyclohexanoate]	65			
CC(C)=CCC/C(C)=C/CC/C(C)=C/CC/C(C)=C/C1=N[C@@H](C(C)C)CO1 [Compound 27a, (S)-4-isopropyl-2-((1E,5E,9E)-2,6,10,14-tetramethylpentadeca-1,5,9,13-tetraen-1-yl)-4,5-dihydrooxazole]	96	1.02		Mean of Hippocampus CA3 Neurons Damaged (Sprague Dawley rats; 2 mg/kg oral): 11%
CCCCCCNC(=O)OC/C=C(\C)CC/C=C(\C)CCC=C(C)C [Compound 8i, Hexyl 2E, 6E-farnesyl carbamate]	59		0.97	
CC/C(=C\CCC(=O)C12CC3CC(CC(C3)C1)C2)CC/C=C(\C)CC/C=C(\C)CCC=C(C)C [Compound 127]	77			
CCOC(=O)CNC(=S)OC/C=C(\C)CC/C=C(\C)CC/C=C(\C)CCC=C(C)C [Compound 10d, Ethoxycarbonylmethyl 2E,6E,10E-geranylgeranyl thiocarbamate]	62		1.36	Mean of Hippocampus CA3 Neurons Damaged (Sprague Dawley rats; 2 mg/kg oral): 14%
CC(C)=CCC/C(C)=C/CC/C(C)=C/CC/C(C)=C/COC(=S)NCCN1CCCCC1 [Compound 10l, Piperidinyl-2′-ethyl 2E,6E,10E-geranylgeranyl thiocarbamate]	164	1.16	1.37	Mean of Hippocampus CA3 Neurons Damaged (Sprague Dawley rats; 20 mg/kg oral): 14%
CCCCCNC(=O)OC(C)CC/C=C(\C)CC/C=C(\C)CCC=C(C)C (stereo not shown) [Compound 20d, n-Pentyl 5E, 9E-farnesyl prop-2-yl carbamate]	67			
CC(C)=CCC/C(C)=C/CC/C(C)=C/CCC(C)OC(=O)NCC1CCCCC1 (stereo not shown) [Compound 20h, Cyclohexylmethyl 5E, 9E-farnesyl prop-2-yl carbamate]	58			
CC(C)=CCC/C(C)=C/CC/C(C)=C/CC/C(C)=C/c1cnco1 [Compound 14, 5-((1E,5E,9E)-2,6,10,14-tetramethylpentadeca-1,5,9,13-tetraen-1-yl)oxazole]	96		0.96	Mean of Hippocampus CA3 Neurons Damaged (Sprague Dawley rats; 2 mg/kg oral): 13%
CCC(=O)CC/C=C(\CC)CC/C=C(\C)CC/C=C(\C)CCC=C(C)C [Compound 128]	67			
CC(=O)CC/C=C(\C)CC/C=C(\C)CC/C=C(\C)CC/C=C(\C)CCC=C(C)C [Compound 132]	103			
CC(C)=CCC/C(C)=C/CC/C(C)=C/CC/C(C)=C/COC(=S)NC1CC2CCC1C2 (stereo not drawn) [Compound 10j, Exo-Norbornyl 2E,6E,10E-geranylgeranyl thiocarbamate]	91	1.06	1.08	
CCCCCCNC(=O)OC/C=C(\C)CC/C=C(\C)CC/C=C(\C)CCC=C(C)C [Compound 7e, n-Hexyl 2E,6E,10E-geranylgeranyl carbamate]	64			Mean of Hippocampus CA3 Neurons Damaged (Sprague Dawley rats; 12 mg/kg oral): 18%
CC(C)=CCC/C(C)=C/CC/C(C)=C/CC/C(C)=C/C1=N[C@@H](Cc2ccccc2)CO1 [Compound 27g, (S)-4-benzyl-2-((1E,5E,9E)-2,6,10,14-tetramethylpentadeca-1,5,9,13-tetraen-1-yl)-4,5-dihydrooxazole]	129		1.11	
CCOC(=O)CCNC(=O)OC/C=C(\C)CC/C=C(\C)CC/C=C(\C)CCC=C(C)C [Compound 7m, Ethoxycarbonyl ethyl 2E, 6E, 10E-geranylgeranyl carbamate]	54	0.89		
COCCNC(=S)OC/C=C(\C)CC/C=C(\C)CC/C=C(\C)CCC=C(C)C [Compound 10i, Methoxy-2′-ethyl 2E,6E,10E-geranylgeranyl thiocarbamate]	83	1.04	1.08	Mean of Hippocampus CA3 Neurons Damaged (Sprague Dawley rats; 2 mg/kg oral): 22%

Compound	unprenylated/total RAP1 (%) (Rap1)	HSP70 level, ELISA signal (absence of compounds normalized as 1.00) (HSP70; 100 nM)	HSP70 level, ELISA signal (absence of compounds normalized as 1.00) (HSP70; 10uM)	also measured
CC(C)=CCC/C(C)=C/CC/C(C)=C/CC/C(C)=C/COC(=S)NCCN1CCOCC1 [Compound 10m, Morpholinyl-2′-ethyl 2E,6E,10E-geranylgeranyl thiocarbamate]	100		1.06	
CC(=O)CC/C=C(\C)CC/C=C(\C)CCC=C(C)C [Compound 52]	71			
CCOC(=O)C(C/C=C(\C)CC/C=C(\C)CC/C=C(\C)CCC=C(C)C)C(=O)c1ccoc1 (stereo not shown) [Compound 68]		1.11		
CC(C)=CCC/C(C)=C/CC/C(C)=C/CC/C(C)=C/CCC(C)OC(=O)NC(C)C (racemic) [Compound 23a, 5E, 9E, 13E-Geranylgeranyl-rac-prop-2-yl iso-propyl carbamate]		1.21		
CCCCCCCN(C)C/C=C(\C)CC/C=C(\C)CC/C=C(\C)CCC=C(C)C [Compound 17c, N-Heptyl-N-Methyl-2E,6E,10E-Geranylgeranyl amine]			1.01	
CC(C)=CCC/C(C)=C/CC/C(C)=C/CC/C(C)=C/COC(=S)Nc1cccnc1 [Compound 38a, O-((2E,6E,10E)-3,7,11,15-tetramethylhexadeca-2,6,10,14-tetraen-1-yl) pyridin-3-ylcarbamothioate]		0.79		
CC(C)=CCC/C(C)=C/CC/C(C)=C/CC/C(C)=C/COC(=O)Nc1ccncc1 [Compound 39, (2E,6E,10E)-3,7,11,15-tetramethylhexadeca-2,6,10,14-tetraen-1-yl pyridin-4-ylcarbamate]		1.15		
CCOC(=O)/C=C(\CC)CC/C=C(\C)CC/C=C(\C)CCC=C(C)C [Compound 131]	61			
COC(=O)[C@@H](NC(=O)OC/C=C(\C)CC/C=C(\C)CC/C=C(\C)CCC=C(C)C)C(C)C [Compound 7j, Methyl 2-(S)-(−)-3-methylbutyrate 2E,6E,10E-geranylgeranyl Carbamate]	63			Mean of Hippocampus CA3 Neurons Damaged (Sprague Dawley rats; 1 mg/kg oral): 13%
CC(C)=CCC/C(C)=C/CC/C(C)=C/CC/C(C)=C/CC1CCCCC1=O (stereo not shown) [Compound 84]	72			
CCOC(=O)C1(C/C=C(\C)CC/C=C(\C)CC/C=C(\C)CCC=C(C)C)CCCCCC1=O (stereo not shown) [Compound 76]		0.75		
CC(C)=CCC/C(C)=C/CC/C(C)=C/CC/C(C)=C/C1=N[C@H](CC(C)C)CO1 [Compound 27f, (R)-4-isobutyl-2-((1E,5E,9E)-2,6,10,14-tetramethylpentadeca-1,5,9,13-tetraen-1-yl)-4,5-dihydrooxazole]			0.91	
CC(=O)NC(=S)OC/C=C(\C)CC/C=C(\C)CC/C=C(\C)CCC=C(C)C [Compound 10g, Acetyl 2E,6E,10E-geranylgeranyl thiocarbamate]			1.60	
CC(C)=CCC/C(C)=C/CC/C(C)=C/CC/C(C)=C/C1=N[C@@H](C(C)C)C(=O)O1 [Compound 37b, (S)-4-isopropyl-2-((1E,5E,9E)-2,6,10,14-tetramethylpentadeca-1,5,9,13-tetraen-1-yl)oxazol-5(4H)-one]			0.89	
CC(C)=CCC/C(C)=C/CC/C(C)=C/CC/C(C)=C/C1=N[C@@H](CC(C)C)C(=O)O1 [Compound 37d, (S)-4-isobutyl-2-((1E,5E,9E)-2,6,10,14-tetramethylpentadeca-1,5,9,13-tetraen-1-yl)oxazol-5(4H)-one]	128		1.04	
